The results in this text go back to patent publication US11896704B2, “Compounds useful for the treatment and/or care of the skin, hair, nails and/or mucous membranes” (LUBRIZOL ADVANCED MATERIALS, INC., priority 2017, dated 2024).

The test system of assay [1] is PER3 (period circadian clock 3). Nature of the assay: PER genes expression in young and old HEKa, real time PCR: PER3. In kind it is cell-based, Human. Particulars: 0.5 mg/ml. Here is the method:
(§1) In Vitro Study of PER Genes Expression in Young and Old Human Epidermal Keratinocytes (HEKa) Using Real Time PCR Arrays. Human Epidermal Keratinocytes, (HEKa) cells (Life Technologies) from donor one and donor two are seeded at 3.0×10^5 cells/well in 12-well plates and incubated in culture medium, Keratinocyte growth medium supplemented with Mix C39016-CaCl2 solution (Promocell). For synchronization, cells were subjected to two alternative cycles of 12 hours each at 37° C. in 5% CO2 humidified air (day mode) and 33° C. in 5% CO2 humidified air (night mode). 12 hours after starting synchronization, cells are incubated with the synthetic peptide […] (PEP-1, H-[SEQ ID. NO. 2]-NH2) at 0.5 mg/ml in culture medium. Cells treated with medium alone are used as basal condition. At the end of synchronization, cell lysates are collected at 7:30 hour (early morning point). […] After RNA elution, quantification and analysis of purity of RNA samples are performed with a nanodrop (Thermo). […] SYBR Green binds to double-stranded DNA molecules and emits fluorescence which is quantified, and the fluorescence intensity is proportional to the amount of the product in the PCR reaction. […] Fold change relative to the expression of the sample genes and reference genes is calculated using normalized expression (ΔΔ(Ct)) method using CFX Manager SoftwareTM (BioRad).

Assay [2] relates to Phenion Full-Thickness Skin models. Nature of the assay: Hydration level in synchronized human full-thickness skin models. In kind it is cell-based. Particulars: 0.5 mg/ml, 48 hours of treatment, one assay. Here is the method: Measurement of Hydration Level in Synchronized Human Full-Thickness Skin Models.
Immediately after arrival, the Phenion® Full-Thickness Skin models (HENKEL) are placed in Petri dishes (5 skin models per condition) according to the supplier's instructions in ALI medium (HENKEL). After 72 hours incubation at 37° C., 5% CO2, a synchronization protocol is initialized. For this purpose, skin models are subjected to two alternative cycles of 12 hours each at 37° C. in 5% CO2 humidified air (day mode) and 33° C. in 5% CO2 humidified air (night mode). At the beginning of the synchronization, pre-treatment measurement of hydration at 7:30 hours is tested in skin models. Hydration measurements of the epidermis are performed with DPM 9003 BT™ (NOVA® Technology Corporation) and with MoistureMeter SC™ (Delphin). For pre-treatment measurements, skin model's surface is washed with 5 ml of Phosphate Buffered Saline (PBS, Sigma). […]
The results in Table 13 show the mean of the percentage of hydration levels at 7:30 hours after 48 hours of treatment relative to hydration levels in basal conditions. […] These values are calculated for one assay. […]
The results in Table 14 represent the mean of the percentage of hydration levels at 7:30 hours after 48 hours of treatment relative to hydration levels in basal conditions at the same time. […] These values are calculated for one assay. […]

Assay [3] relates to PER2 (period circadian clock 2). Put plainly: PER genes expression in young and old HEKa, real time PCR: PER2. In kind it is cell-based, Human. The following applies: 0.5 mg/ml. Here is the method:
as §1

Consider “H-Phe-Trp-Met-Lys-Arg-Lys-Arg-Val-Pro-NH2 (H-FWMKRKRVP-NH2) [PEP-1]”, for which the “Fold induction at 7:30 h respect to Basal condition (%)” value in assay [1] (PER3, HEKa from donor one) was 182.5%; in assay [1] (PER3, HEKa from donor two) it was 249.0%; in assay [3] (PER2, HEKa from donor one), 172.0%; in assay [3] (PER2, HEKa from donor two), 292.0%. The “Hydration level (%)” value in assay [2] (7:30 h, relative to basal conditions 7:30 h, MoistureMeter SC) was determined as 110.1%. Also, the “Hydration level at 7:30 hours (%)” value in assay [2] (relative to basal conditions, DPM9003 BT) was found to be 131.6%.
